Assay results published in patent publication US20250127857A1, “A COMPOSITION COMPRISING IL-36 AND/OR IL-18 FOR USE IN TREATING OCULAR DISORDERS” (THE PROVOST, FELLOWS, FOUNDATION SCHOLARS, & THE OTHER …, priority 2021, published 2025).

Experiments:
[1] = tested on: laser induced CNV in WT mice; assay: Mesenchymal cell infiltration/activation after laser induced CNV, 3 days; type: in vivo, mouse
Description: (§1) FIG. 22 illustrates increased mesenchymal cell infiltration/activation in animals injected with IL-18 intrperitoneally, wherein WT mice underwent laser induced CNV and were injected IP with IL-18 (100 ug/kg), wherein 3 days later eyes were enucleated, flatmounts were stained with F4/80, vimentin and isolectin and imaged by confocal microscopy;
as §1, with “23” for “22”, “intra-vitreally,” for “intrperitoneally,”, “intravitreally” for “IP”, “(0.3ng/eye),” for “(100 ug/kg),”

IL-18BP = molecular target: T1, IL-18BP (Homo sapiens, UniProt O95998); conditions: 1:1 stoichiometry; used for free IL-18 calculation (Migliorini et al., 2010); read-out: dissociation constant (Kd) of the IL-18/IL-18BP complex; cited from earlier work
T1 sequence (O95998 31-194): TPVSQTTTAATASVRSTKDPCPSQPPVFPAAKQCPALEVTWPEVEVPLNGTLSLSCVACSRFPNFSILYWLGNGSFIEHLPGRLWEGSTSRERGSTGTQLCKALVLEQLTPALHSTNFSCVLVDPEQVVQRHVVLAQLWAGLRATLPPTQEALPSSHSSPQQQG

[2] = tested on: human ocular choroidal fibroblasts (HOCFs); assay: Activation of human ocular choroidal fibroblasts (vimentin/phalloidin staining); type: cell-based; conditions: IL-18 increasing doses, 8 h
Description: FIG. 20 illustrates IL-18 activates human ocular choroidal fibroblasts and inhibits VEGF secretion, wherein (A) is human ocular choroidal fibroblast (HOCFs) treated with IL-18 at increasing doses for 8 h, wherein cells were fixed and stained with antibody targeting intermediate filament vimentin (red), Hoechst (blue) and phalloidin (green); (B) is HOCFs treated with IL-18 (100 ng/ml) over 60 mins and immunoblotted for phospho-ERK and phospo-p65 with B-actin and GAPDH as controls; (C) is HOCFs treated with IL-18 (100 ng/ml) over 24 h as indicated, wherein cells were analysed for VEGF expression by qPCR (D) is HOCFs treated with 10, 100 or 1000 ng/ml of IL-18 as indicated over 48 h and cell death was analysed by LDH assay;

occludin = assay: Occludin expression in HRMEC (qPCR and immunoblotting); type: cell-based, human
Description: FIG. 18 illustrates IL-18 drives expression of tight junction protein occludin and inhibits VEGF depletion of occluding, wherein HRMECS were treated with either VEGF, IL-18 or IL-1α for the timepoints indicated (top panel) and cells were prepared for RNA isolation and qPCR with expression of occluding measured, wherein HRMECs were treated with VEGF, IL-18 or IL-1 or combinations of these cytokines and cells were prepared for immunoblotting for expression of occludin and b-actin (lower panels);
Following transfer, membranes were blocked by incubating in 5% non-fat dried milk (Marvel) in TBS-T for 1 hour at room temperature whilst shaking. Membranes were incubated with primary antibody diluted in either 5% Marvel or BSA, depending on antibody specification, overnight at 4° C. with gentle agitation. Primary antibody was recovered and stored at −20. Membranes were washed three times in TBS-T for 5 minutes and membranes were incubated with secondary antibody, diluted in 5% Marvel, for 1 hour at room temperature. Secondary antibody was removed and discarded, and excess secondary was removed from the membranes by three 5-minute washes in TBS-T.
All RT-PCR assays were carried out using the SensiFAST SYBR Hi-ROX Kit (Bioline) with primers designed using Primer-BLAST (NCBI). For each target a master-mix comprising of 4 μl SYBR Green mix, 0.5 μl of Forward primer (4 μM) and 0.5 μl of Reverse primer (4 μM) along and 3 μl of RNAse free H2O was prepared and mixed thoroughly by vortexing. 8 μl of master-mix was added to each well of a 0.1 mL MicroAMP® Fast 96-well Reaction Plate (Applied Biosystems), along with 2 μl of cDNA and sealed using Optical adhesive film (Applied Biosystems) and spun down for 30 seconds in a centrifuge fitted with microplate rotor (Eppendorf) before running. Plate were run using a QuantStudio 3 real-time PCR System (Applied Biosystems) or the StepOnePlus Real-Time PCR System (Applied Biosystems), with run conditions set as: 50° C. for 2 mins, 95° C. for 10 minutes, 40 cycles of 95° C. for 15 seconds then 60° C. for 1 minute. To assess the quality of Primers a melt-curve stage was added: 95° C. for 1 second, 60° C. for 20 seconds, 95° C. for 1 second. Data were analysed using the QuantStudio™ Design & Analysis software (Applied Biosystems) and using the comparative Ct (ΔΔCt) method where test samples were normalised to endogenous control (β-Actin) followed by normalising the ΔCt of test samples to sample control (untreated sample), then calculating 2^−ΔΔCt to find the relative fold change of test samples over sample control.

HRMEC = assay: Wound healing (scratch) assay in HRMEC, IL-18; type: cell-based, human; conditions: for mean difference in wound closure vs no treatment (xdiff): IL-18, VEGF, bFGF each 50 ng/ml, closure expressed as % closure
Description: FIG. 16 illustrates HRMEC migration in response to IL-18 and IL-1α stimulation, wherein confluent HRMEC monolayers were scratched with a pipette tip and treated with IL-18 (50 ng/ml) or IL-1α (10 ng/ml) along with bFGF (50 ng/ml) or VEGF (50 ng/ml) as positive controls, wherein images were taken immediately following scratch (0 hrs) and at 4, 8 and 24 hours following scratch, wherein images were analysed using ImageJ imaging software, wherein data are presented as mean±SEM of 6 separate experiments in triplicate, wherein data were analysed using 2way ANOVA with Dunnett's multiple comparison test. (*p<0.05, *p<0.01, ****p<0.0001);
Cells were seeded on to a 12-well plate and grown until they reached confluency. 24 hours prior to the scratch, culture medium was replaced with 0.5% Serum media without supplements for 24 hours to induce cell quiescence. Cell monolayers were scratched once down the centre of the well using a p200 pipette tip and washed once with warmed DPBS to remove debris then replaced with 0.5% serum supplemented media with experimental treatments. Images were acquired using an Olympus IX51 inverted microscope with Cell^A imaging software (Olympus). Images were taken at baseline immediately following scratch and at suitable timepoints for up to 24 (HRMECs) or 48 hours (BMVECs). The area within the scratch was quantified using ImageJ software, and each timepoint was normalised to its baseline and expressed as % closure.

## IL-18: recombinant human IL-18 (SB-485232; GSK)
[1]; IL-18 0.3ng/eye intravitreally
  vimentin staining at CNV lesion: driving vimentin positive cells to encapsulate the neovascular lesion
[1]; IL-18 100 ug/kg intra-peritoneally
  vimentin staining at CNV lesion: increased vimentin
IL-18BP
  Kd: 0.4 nM
[2]
  HOCF activation / morphology: activates HOCFs causing them to change morphology
occludin; combination with VEGF, immunoblotting
  rescue of VEGF mediated occludin inhibition: can rescue VEGF inhibition of occluding
occludin; single cytokine
  expression of tight junction protein occludin: increased expression of this tight junction protein
HRMEC; 8 hours post scratch
  mean difference in wound closure vs no treatment (xdiff): −0.99
HRMEC; 24 hours post scratch
  mean difference in wound closure vs no treatment (xdiff): −12.58
HRMEC; IL-18 50 ng/ml, vs no treatment control
  rate of wound closure: significantly increased the rate of wound closure
